Converted amounts (≈) assume the structure as drawn. Where a SMILES comes first, the peptide text is derived from it. Bridges are numbered along the chain shown (N, C = ends). Roman numbers before positions name the chains, in order. [ ]: non-standard residue; d: D form. Hiv = CC(C)[C@H](O)C(=O)O; dDab = NCC[C@@H](N)C(=O)O; Dab = NCC[C@H](N)C(=O)O; Abu = CC[C@H](N)C(=O)O; Dap = NC[C@H](N)C(=O)O
Experiments:
male ICR mice = assay: Tolerability in a mouse model (Maximum Tolerated Dose assay); assay type: in vivo; settings: groups of 3
Summary of the method: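 Peptides in 0.9% NaCl (pH 6.5-7.6) given s.c. at 30 or 40 mg/kg, twice 12 h apart, to groups of 3 male ICR mice (23±3 g). Acute toxic signs (mortality, convulsions, tremors, sedation) and autonomic effects (diarrhea, salivation, piloerection) observed for 30 min after each dose.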

[1] = tested on: human red blood cells (hRBC); assay: Hemolysis; assay type: cell-based; settings: red cells of human, 1 h, 200
Summary of the method: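 Percent lysis of human red cells was derived from OD540 of the supernatant, referenced to 2% Triton X-100, after a 1 h, 37° C incubation of 20% (v/v) cells with 200 μg/mL peptide.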

[2] = tested on: Klebsiella pneumoniae SSI #3010; assay type: cell-based; settings: SSI #3010
Summary of the method: (§1)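 CLSI broth microdilution: inoculum ~10^6 CFU/mL in cation-adjusted Mueller-Hinton II broth, with peptide in serial two-fold dilutions plus Polysorbate 80 (0.002% final). MIC (μg/mL) is the lowest concentration without visible growth after 18-20 hours at 35° C.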

[3] = tested on: Pseudomonas aeruginosa ATCC 27853; assay type: cell-based; settings: ATCC 27853
Summary of the method: as §1

[4] = tested on: Acinetobacter baumannii 872842; assay type: cell-based; settings: 872842
Summary of the method: as §1

[5] = tested on: Acinetobacter baumannii DSM 30008; assay type: cell-based; settings: DSM 30008
Summary of the method: as §1

[6] = tested on: Enterobacter cloacae 848840; assay type: cell-based; settings: 848840
Summary of the method: as §1

Escherichia coli 926415 = assay type: cell-based; settings: 926415
Summary of the method: as §1

[7] = tested on: Escherichia coli ATCC 25922; assay type: cell-based; settings: ATCC 25922
Summary of the method: as §1

[8] = tested on: Klebsiella pneumoniae 968733; assay type: cell-based; settings: 968733
Summary of the method: as §1

[9] = 2 × 40 mg/kg s.c. at a 12-hr interval

SMILES	Mortality and dose (male ICR mice; [9])	Hemolysis at 200 μg/mL [1]	MIC [2]	MIC [3]	MIC [4]	MIC [5]	MIC [6]	MIC (Escherichia coli 926415)	MIC [7]	MIC [8]	Klebsiella pneumoniae SSI #3010 MIC [2]	Pseudomonas aeruginosa ATCC 27853 MIC [3]	Acinetobacter baumannii DSM 30008 MIC [5]	Escherichia coli ATCC 25922 MIC [7]	Mortality and dose (male ICR mice; 2 × 30 mg/kg s.c. at a 12-hr interval)
CC(=O)N[C@H](C(=O)N[C@H]1CSSC[C@@H](C(=O)N[C@@H](CO)C(N)=O)NC(=O)[C@H](C(C)C)NC(=O)[C@H](CO)NC(=O)[C@H](Cc2c[nH]c3ccccc23)NC(=O)[C@H](CCN)NC(=O)[C@@H](CO)NC(=O)[C@H](CCC(=O)N[C@@H](CCN)C(=O)N[C@H](C(=O)N[C@@H](CN)C(=O)N[C@H]2CCNC(=O)[C@H]([C@@H](C)O)NC(=O)[C@H](CCN)NC(=O)[C@H](CCN)NC(=O)[C@H](CC(C)C)NC(=O)[C@@H](CC(C)C)NC(=O)[C@H](CCN)NC2=O)[C@@H](C)O)NC(=O)[C@H](CCN)NC(=O)[C@H](Cc2ccc(O)cc2)NC1=O)C(C)C [Ex. 297] (I: Ac-VCY[Dab]E[dS][Dab]WSVCS-NH2 / II: [Dab]T[Dap][Dab][Dab][dL]L[Dab][Dab]T; disulfide I:2-I:11; amide I:5-II:N; lactam II:4-II:C)	0/3 died at 2 × 40 mg/kg	<1%	0.0625 mg/L (≈ 0.0261 µM)	0.125 mg/L (≈ 0.0521 µM)	0.0625 mg/L (≈ 0.0261 µM)	0.03125 mg/L (≈ 0.013 µM)	0.125 mg/L (≈ 0.0521 µM)	0.125 mg/L (≈ 0.0521 µM)	0.03125 mg/L (≈ 0.013 µM)	0.125 mg/L (≈ 0.0521 µM)	–	–	–	–	–
CC[C@@H]1NC(=O)[C@@H](CC(C)C)NC(=O)[C@H](CCN)NC(=O)[C@@H](NC(=O)[C@H](CN)NC(=O)[C@@H](NC(=O)[C@H](CCN)NC(=O)CC[C@@H]2NC(=O)[C@H](CCN)NC(=O)[C@H](Cc3ccc(O)cc3)NC(=O)[C@@H](NC(=O)[C@@H](NC(C)=O)C(C)C)CSSC[C@@H](C(=O)N[C@@H](CO)C(N)=O)NC(=O)[C@H]([C@@H](C)CC)NC(=O)[C@H](CO)NC(=O)[C@H](Cc3c[nH]c4ccccc34)NC(=O)[C@H](CCN)NC(=O)CNC2=O)[C@@H](C)O)CCNC(=O)[C@H]([C@@H](C)O)NC(=O)[C@H](CCN)NC(=O)[C@H](CCN)NC1=O [Ex. 299] (I: Ac-VCY[Dab]EG[Dab]WSICS-NH2 / II: [Dab]T[Dap][Dab][Dab][dL][Abu][Dab][Dab]T; disulfide I:2-I:11; amide I:5-II:N; lactam II:4-II:C)	0/3 died at 2 × 40 mg/kg	<1%	–	–	0.125 mg/L (≈ 0.0531 µM)	–	0.125 mg/L (≈ 0.0531 µM)	0.25 mg/L (≈ 0.106 µM)	–	0.5 mg/L (≈ 0.212 µM)	0.0625 mg/L	0.25 mg/L	0.0625 mg/L	0.0625 mg/L	–
CC[C@@H]1NC(=O)[C@@H](CC(C)C)NC(=O)[C@H](CCN)NC(=O)[C@@H](NC(=O)[C@H](CN)NC(=O)[C@@H](NC(=O)[C@H](CCN)NC(=O)CC[C@@H]2NC(=O)[C@H]([C@@H](C)O)NC(=O)[C@H](Cc3ccc(O)cc3)NC(=O)[C@@H](NC(=O)[C@@H](NC(C)=O)C(C)C)CSSC[C@@H](C(=O)N[C@@H](CO)C(N)=O)NC(=O)[C@H]([C@@H](C)CC)NC(=O)[C@H](CO)NC(=O)[C@H](Cc3c[nH]c4ccccc34)NC(=O)[C@H](CCN)NC(=O)[C@@H](CCN)NC2=O)[C@@H](C)O)CCNC(=O)[C@H]([C@@H](C)O)NC(=O)[C@H](CCN)NC(=O)[C@H](CCN)NC1=O [Ex. 258] (I: Ac-VCYTE[dDab][Dab]WSICS-NH2 / II: [Dab]T[Dap][Dab][Dab][dL][Abu][Dab][Dab]T; disulfide I:2-I:11; amide I:5-II:N; lactam II:4-II:C)	–	2%	0.03125 mg/L (≈ 0.013 µM)	0.0625 mg/L (≈ 0.0261 µM)	0.03125 mg/L (≈ 0.013 µM)	0.03125 mg/L (≈ 0.013 µM)	0.0625 mg/L (≈ 0.0261 µM)	0.25 mg/L (≈ 0.104 µM)	0.0625 mg/L (≈ 0.0261 µM)	0.125 mg/L (≈ 0.0521 µM)	–	–	–	–	0/3 died at 2 × 30 mg/kg
CC(C)C[C@@H]1NC(=O)[C@@H](CC(C)C)NC(=O)[C@H](CCN)NC(=O)[C@@H](NC(=O)[C@H](CN)NC(=O)[C@@H](NC(=O)[C@H](CCN)NC(=O)CC[C@@H]2NC(=O)[C@H](CCN)NC(=O)[C@H](Cc3ccc(O)cc3)NC(=O)[C@@H](NC(=O)[C@@H](O)C(C)C)CSSC[C@@H](C(=O)N[C@H](CO)C(N)=O)NC(=O)[C@H](C(C)C)NC(=O)[C@H](CO)NC(=O)[C@H](Cc3c[nH]c4ccccc34)NC(=O)[C@H](CO)NC(=O)[C@@H](CCN)NC2=O)[C@@H](C)O)CCNC(=O)[C@H]([C@@H](C)O)NC(=O)[C@H](CCN)NC(=O)[C@H](CCN)NC1=O [Ex. 344] (I: H-[Hiv]CY[Dab]E[dDab]SWSVC[dS]-NH2 / II: [Dab]T[Dap][Dab][Dab][dL]L[Dab][Dab]T; disulfide I:2-I:11; amide I:5-II:N; lactam II:4-II:C)	0/3 died at 2 × 40 mg/kg	<1%	–	–	0.25 mg/L (≈ 0.106 µM)	–	1 mg/L (≈ 0.424 µM)	0.125 mg/L (≈ 0.053 µM)	–	0.25 mg/L (≈ 0.106 µM)	0.0625 mg/L	0.125 mg/L	0.125 mg/L	0.0625 mg/L	–
CC(=O)N[C@H](C(=O)N[C@H]1CCNC(=O)C[C@@H](C(=O)N[C@@H](CO)C(N)=O)NC(=O)[C@H](C(C)C)NC(=O)[C@H](CO)NC(=O)[C@H](Cc2c[nH]c3ccccc23)NC(=O)[C@H](CO)NC(=O)[C@@H](CCN)NC(=O)[C@H](CCC(=O)N[C@@H](CCN)C(=O)N[C@H](C(=O)N[C@@H](CN)C(=O)N[C@H]2CCNC(=O)[C@H]([C@@H](C)O)NC(=O)[C@H](CCN)NC(=O)[C@H](CCN)NC(=O)[C@H](CC(C)C)NC(=O)[C@@H](CC(C)C)NC(=O)[C@H](CCN)NC2=O)[C@@H](C)O)NC(=O)[C@H](CCN)NC(=O)[C@H](Cc2ccc(O)cc2)NC1=O)C(C)C [Ex. 341] (I: Ac-V[Dab]Y[Dab]E[dDab]SWSVDS-NH2 / II: [Dab]T[Dap][Dab][Dab][dL]L[Dab][Dab]T; lactam I:2-I:11, II:4-II:C; amide I:5-II:N)	0/3 died at 2 × 40 mg/kg	<1%	–	–	0.25 mg/L (≈ 0.105 µM)	–	2 mg/L (≈ 0.836 µM)	0.5 mg/L (≈ 0.209 µM)	–	1 mg/L (≈ 0.418 µM)	0.0625 mg/L	0.125 mg/L	0.0625 mg/L	0.0625 mg/L	–
CC(=O)N[C@H](C(=O)N[C@H]1CSSC[C@@H](C(=O)N[C@@H](CO)C(N)=O)NC(=O)[C@H](C(C)C)NC(=O)[C@H](CO)NC(=O)[C@H](Cc2c[nH]c3ccccc23)NC(=O)[C@H](CO)NC(=O)CNC(=O)[C@H](CCC(=O)N[C@@H](CCN)C(=O)N[C@H](C(=O)N[C@@H](CN)C(=O)N[C@H]2CCNC(=O)[C@H]([C@@H](C)O)NC(=O)[C@H](CCN)NC(=O)[C@H](CCN)NC(=O)[C@H](CC(C)C)NC(=O)[C@@H](CC(C)C)NC(=O)[C@H](CCN)NC2=O)[C@@H](C)O)NC(=O)[C@H](CCN)NC(=O)[C@H](Cc2ccc(O)cc2)NC1=O)C(C)C [Ex. 337] (I: Ac-VCY[Dab]EGSWSVCS-NH2 / II: [Dab]T[Dap][Dab][Dab][dL]L[Dab][Dab]T; disulfide I:2-I:11; amide I:5-II:N; lactam II:4-II:C)	0/3 died at 2 × 40 mg/kg	2%	–	–	0.25 mg/L (≈ 0.106 µM)	–	0.25 mg/L (≈ 0.106 µM)	1 mg/L (≈ 0.424 µM)	–	2 mg/L (≈ 0.849 µM)	0.125 mg/L	0.25 mg/L	0.125 mg/L	0.0625 mg/L	–

— US11629171B2, “Beta-hairpin peptidomimetics” (POLYPHOR AG, priority 2017, dated 2023)
